# The source made the active and inactive calls.
# How the values were obtained:
# [1] = target: Mitogen-activated protein kinase 10 (Homo sapiens, UniProt P53779); assay: Dose response biochemical screening assay for inhibitors of c-Jun N-Terminal Kinase 3 (JNK3). [Related pubchem assays: 746 ]
# [2] = Luminescent dose response cell-based high throughput screening assay for inhibitors of the Janus kinase 2 mutant JAK2V617F. [Related pubchem assays: 1446 (Primary screen.), 1521 (Confirmation assay.), 1486 (Counter screen.)]; type: functional
# [3] = Luminescence Cell-Based Dose Confirmation HTS to Identify Activators of 5'UTR Stem-Loop Driven Alpha-Synuclein mRNA Translation in H4 Neuroglioblastoma Cells. [Related pubchem assays: 1829 (Project Summary), 1814 (Primary HTS)]; type: functional
# [4] = Luminescence Cell-Based Dose Response HTS to Identify Activators of Luciferase Translation or Activity in H4 […] Cells. [Related pubchem assays: 1829 (Project Summary), 1814 (Primary HTS)]; type: functional
# H4 = assay: Luminescence Cell-Based Dose Response HTS to Identify Activators of 5'UTR Stem-Loop Driven Prion Protein mRNA Translation in H4 Neuroglioblastoma Cells. [Related pubchem assays: 1829 (Project Summary), 1814 (Primary HTS)]; type: functional; settings: Homo sapiens
# [5] = target: T1, Ubiquitin-conjugating enzyme E2 N (Homo sapiens, UniProt P61088); type: functional;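 also: Dose-response confirmation in a TR-FRET assay detecting UBC13-driven polyubiquitin chain formation, inhibition measured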
# T1 sequence (P61088 whole entry): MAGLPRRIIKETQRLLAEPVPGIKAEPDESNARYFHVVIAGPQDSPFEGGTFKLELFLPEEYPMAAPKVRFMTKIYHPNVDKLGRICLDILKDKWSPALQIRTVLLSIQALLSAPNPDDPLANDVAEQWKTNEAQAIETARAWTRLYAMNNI
# Vero [6] = assay: West Nile virus antiviral activity, cell-based, CPE readout (AID 1621); type: functional; settings: Chlorocebus sabaeus
# Vero [7] = assay: host cell cytotoxicity of antiviral hits, dose response, cytotoxicity control for West Nile virus antiviral project, secondary assay (AID 1650); type: functional; settings: Chlorocebus sabaeus
# [8] = target: T2, Microphthalmia-associated transcription factor (Homo sapiens, UniProt O75030); assay: TRPM1 promoter luciferase signal decrease, dose response, MITF inhibitor project, cell-based, SK-MEL-5, cherry-picked, set 3 (AID 493073); type: functional
# T2 sequence (O75030 whole entry): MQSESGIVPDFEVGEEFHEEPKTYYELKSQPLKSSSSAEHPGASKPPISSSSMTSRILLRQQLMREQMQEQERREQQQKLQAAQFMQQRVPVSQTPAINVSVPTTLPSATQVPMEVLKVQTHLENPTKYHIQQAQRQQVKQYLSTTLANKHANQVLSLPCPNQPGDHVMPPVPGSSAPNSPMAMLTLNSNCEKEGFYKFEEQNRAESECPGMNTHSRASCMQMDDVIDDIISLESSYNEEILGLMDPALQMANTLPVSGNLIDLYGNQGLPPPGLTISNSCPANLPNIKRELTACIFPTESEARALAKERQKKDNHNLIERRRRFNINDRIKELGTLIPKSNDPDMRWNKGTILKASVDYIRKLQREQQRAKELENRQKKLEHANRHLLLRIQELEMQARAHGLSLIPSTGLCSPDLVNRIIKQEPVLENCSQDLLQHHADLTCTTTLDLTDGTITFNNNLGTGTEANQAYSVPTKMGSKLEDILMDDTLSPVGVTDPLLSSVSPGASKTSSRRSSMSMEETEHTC
# [9] = Jurkat T cell cytotoxicity, dose response, cytotoxicity control for P. falciparum gametocyte viability project, luminescence (AID 1117277); type: functional, cell-based;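 also: potency reflects loss of cellular ATP meaning fewer viable cells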
# [10] = P. falciparum late gametocyte killing, dose response, luminescence (AID 1117278); type: functional, cell-based;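 also: gametocytes exposed to compound for 24 hours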
# Protein Tat = Protein Tat (Human immunodeficiency virus type 1 group M subtype B (isolate HXB2)(HIV-1), UniProt P04608); type: functional;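 also: tat binding to TAR RNA read out by fluorescence polarization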
# Protein Tat, sequence (P04608 whole entry): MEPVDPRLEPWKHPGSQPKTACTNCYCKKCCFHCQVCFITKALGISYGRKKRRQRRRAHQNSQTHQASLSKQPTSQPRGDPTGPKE
# [11] = target: Neurotensin receptor type 1 (Homo sapiens, UniProt P30989); type: functional;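 also: Image-based confirmatory dose-response assay measuring agonist activity at NTR1; NTR1-expressing U2OS osteosarcoma cells imaged for beta-arrestin GFP spot formation; agonist potency where compounds increase beta-arrestin recruitment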
# Neurotensin receptor type 1, sequence (P30989 whole entry): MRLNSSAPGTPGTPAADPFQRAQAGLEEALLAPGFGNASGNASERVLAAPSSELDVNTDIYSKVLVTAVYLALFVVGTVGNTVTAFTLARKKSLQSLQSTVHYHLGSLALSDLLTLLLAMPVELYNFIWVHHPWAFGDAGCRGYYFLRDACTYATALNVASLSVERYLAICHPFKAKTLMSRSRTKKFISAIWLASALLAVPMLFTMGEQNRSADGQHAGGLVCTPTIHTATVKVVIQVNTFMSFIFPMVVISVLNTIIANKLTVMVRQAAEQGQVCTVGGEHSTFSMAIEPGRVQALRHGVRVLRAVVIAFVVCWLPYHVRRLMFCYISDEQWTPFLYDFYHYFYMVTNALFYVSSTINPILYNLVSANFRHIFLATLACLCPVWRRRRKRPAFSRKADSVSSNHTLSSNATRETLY
# BJ [12] = assay: cells; type: functional, cell-based, Homo sapiens; settings: Homo sapiens, BJ
# BJ [13] = assay: cytotoxicity toward BJ-TERT-LT-ST fibroblasts, dose response, cell-based, RAS-independent, luminescence (AID 1935); type: functional, Homo sapiens; settings: Homo sapiens, BJ;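 also: BJ fibroblasts immortalized with TERT plus LT and ST oncogenes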
# Large T antigen = Large T antigen (Simian virus 40, UniProt P03070); type: functional, Betapolyomavirus macacae;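 also: Confirmatory-stage PubChem screen for compounds that inhibit SV40 T antigen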
# Large T antigen, sequence (P03070 whole entry): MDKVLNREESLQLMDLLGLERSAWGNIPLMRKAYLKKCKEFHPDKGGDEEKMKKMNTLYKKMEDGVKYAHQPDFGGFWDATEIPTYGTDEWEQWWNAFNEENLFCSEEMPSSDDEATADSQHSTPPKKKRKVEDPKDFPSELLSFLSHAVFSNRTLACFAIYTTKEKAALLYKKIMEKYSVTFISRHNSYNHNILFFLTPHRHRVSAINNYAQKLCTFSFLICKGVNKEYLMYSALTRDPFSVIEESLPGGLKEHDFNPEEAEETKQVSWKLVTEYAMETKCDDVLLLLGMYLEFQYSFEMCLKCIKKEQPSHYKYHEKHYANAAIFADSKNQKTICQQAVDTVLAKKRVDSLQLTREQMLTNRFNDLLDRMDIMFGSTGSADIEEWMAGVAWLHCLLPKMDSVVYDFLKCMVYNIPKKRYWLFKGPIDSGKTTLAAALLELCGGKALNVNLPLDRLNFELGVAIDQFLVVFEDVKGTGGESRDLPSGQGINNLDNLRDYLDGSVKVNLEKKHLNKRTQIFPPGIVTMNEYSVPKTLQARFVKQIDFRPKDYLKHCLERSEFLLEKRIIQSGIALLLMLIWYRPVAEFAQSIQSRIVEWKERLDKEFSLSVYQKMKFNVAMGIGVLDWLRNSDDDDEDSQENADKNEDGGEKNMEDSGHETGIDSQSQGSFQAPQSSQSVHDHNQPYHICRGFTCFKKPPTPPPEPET
# [14] = THP-1 cell cytotoxicity, dose response, cytotoxicity control for Vif-APOBEC3G degradation inhibitor project, THP-1 cells (AID 1117359); type: functional; settings: Human immunodeficiency virus 1, THP-1
# BJ [15] = assay: cytotoxicity toward BJ-TERT fibroblasts, dose response, cell-based, RAS-independent, luminescence (AID 1933); type: functional, Homo sapiens; settings: Homo sapiens, BJ
# [16] = cytotoxicity toward DRD oncogenic fibroblasts, dose response, cell-based, non-viral oncogenic, luminescence (AID 1934); type: functional; settings: Homo sapiens
# [17] = Luminescence Cell-Based Dose Response to Identify Activators of Luciferase Translation or Activity in H4-C Neuroglioblastoma Cells. [Related pubchem assays: 1829 (Project Summary), 1814 (Primary HTS)]; type: functional
# [18] = Luminescence Cell-Based Dose Confirmation to Identify Activators of 5'UTR Stem-Loop Driven Alpha-Synuclein mRNA Translation in H4 Neuroglioblastoma Cells. [Related pubchem assays: 1829 (Project Summary), 1814 (Primary HTS)]; type: functional
# [19] = Luminescence Cell-Based Dose Response to Identify Activators of 5'UTR Stem-Loop Driven Prion Protein mRNA Translation in H4-C Neuroglioblastoma Cells. [Related pubchem assays: 1829 (Project Summary), 1814 (Primary HTS)]; type: functional
# Genome polyprotein = Genome polyprotein (dengue virus type 2, UniProt P29990); assay: Dengue-2 NS5 methyltransferase inhibitors, primary screen, biochemical, confirmation dose response (AID 588689); type: functional
# Genome polyprotein, sequence (P29990 2492-3391 limits assumed): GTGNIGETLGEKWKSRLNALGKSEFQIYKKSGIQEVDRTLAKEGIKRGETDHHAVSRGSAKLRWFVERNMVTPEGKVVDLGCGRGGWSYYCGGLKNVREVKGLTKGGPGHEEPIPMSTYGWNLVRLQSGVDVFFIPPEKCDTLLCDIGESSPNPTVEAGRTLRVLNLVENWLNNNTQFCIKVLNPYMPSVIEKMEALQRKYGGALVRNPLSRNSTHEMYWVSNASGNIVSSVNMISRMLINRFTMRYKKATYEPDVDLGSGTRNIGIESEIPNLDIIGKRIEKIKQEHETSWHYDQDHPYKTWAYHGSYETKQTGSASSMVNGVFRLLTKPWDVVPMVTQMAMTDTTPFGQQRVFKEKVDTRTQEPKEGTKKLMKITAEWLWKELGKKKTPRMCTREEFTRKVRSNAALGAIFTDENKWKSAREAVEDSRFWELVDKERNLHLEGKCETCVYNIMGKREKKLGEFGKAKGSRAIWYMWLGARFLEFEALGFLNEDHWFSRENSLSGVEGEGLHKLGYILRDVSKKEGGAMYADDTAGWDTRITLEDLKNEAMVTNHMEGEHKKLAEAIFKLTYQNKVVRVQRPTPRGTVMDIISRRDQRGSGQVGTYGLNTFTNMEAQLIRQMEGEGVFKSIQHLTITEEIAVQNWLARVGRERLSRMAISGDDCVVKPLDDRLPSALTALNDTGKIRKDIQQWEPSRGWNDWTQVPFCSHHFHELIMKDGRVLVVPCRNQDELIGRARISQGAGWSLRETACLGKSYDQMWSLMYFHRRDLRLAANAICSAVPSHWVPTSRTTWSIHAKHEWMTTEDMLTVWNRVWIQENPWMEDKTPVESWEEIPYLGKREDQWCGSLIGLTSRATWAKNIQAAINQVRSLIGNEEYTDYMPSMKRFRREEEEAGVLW
# [20] = target: T3, Zinc finger protein mex-5 (Caenorhabditis elegans, UniProt Q9XUB2); assay: MEX-5/TCR-2 RNA interaction inhibitors, dose response, biochemical, C. elegans, fluorescence polarization (AID 1960)
# T3 sequence (Q9XUB2 whole entry): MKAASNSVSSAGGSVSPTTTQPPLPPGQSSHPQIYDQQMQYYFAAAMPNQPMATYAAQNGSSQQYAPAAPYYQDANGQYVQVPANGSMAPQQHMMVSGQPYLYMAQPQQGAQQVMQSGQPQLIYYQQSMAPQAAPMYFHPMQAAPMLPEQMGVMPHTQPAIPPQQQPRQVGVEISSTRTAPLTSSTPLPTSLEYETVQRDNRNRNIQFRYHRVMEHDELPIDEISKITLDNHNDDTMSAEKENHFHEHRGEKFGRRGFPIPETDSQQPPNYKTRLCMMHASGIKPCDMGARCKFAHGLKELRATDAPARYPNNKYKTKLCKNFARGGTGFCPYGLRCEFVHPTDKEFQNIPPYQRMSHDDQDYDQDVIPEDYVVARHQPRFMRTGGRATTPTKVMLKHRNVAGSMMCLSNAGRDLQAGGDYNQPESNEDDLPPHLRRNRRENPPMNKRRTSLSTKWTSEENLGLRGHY
# [21] = target: T4, RNA-binding protein pos-1 (Caenorhabditis elegans, UniProt G5EF15); assay: inhibitors of POS-1/mex-3 RNA binding, dose response, biochemical, fluorescence polarization (AID 1964);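 also: purified POS-1 fused to maltose binding protein made in E. coli; potency of compounds blocking POS-1 binding to fluorescent RNA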
# T4 sequence (G5EF15 whole entry): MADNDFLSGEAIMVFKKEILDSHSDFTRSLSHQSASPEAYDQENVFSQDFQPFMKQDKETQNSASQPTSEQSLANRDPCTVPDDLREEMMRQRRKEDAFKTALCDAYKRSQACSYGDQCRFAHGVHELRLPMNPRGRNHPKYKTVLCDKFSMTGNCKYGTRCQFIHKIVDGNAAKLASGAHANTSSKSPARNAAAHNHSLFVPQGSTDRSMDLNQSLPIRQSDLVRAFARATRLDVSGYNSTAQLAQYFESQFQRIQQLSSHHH
# Mitogen-activated protein kinase 10, sequence (P53779 whole entry): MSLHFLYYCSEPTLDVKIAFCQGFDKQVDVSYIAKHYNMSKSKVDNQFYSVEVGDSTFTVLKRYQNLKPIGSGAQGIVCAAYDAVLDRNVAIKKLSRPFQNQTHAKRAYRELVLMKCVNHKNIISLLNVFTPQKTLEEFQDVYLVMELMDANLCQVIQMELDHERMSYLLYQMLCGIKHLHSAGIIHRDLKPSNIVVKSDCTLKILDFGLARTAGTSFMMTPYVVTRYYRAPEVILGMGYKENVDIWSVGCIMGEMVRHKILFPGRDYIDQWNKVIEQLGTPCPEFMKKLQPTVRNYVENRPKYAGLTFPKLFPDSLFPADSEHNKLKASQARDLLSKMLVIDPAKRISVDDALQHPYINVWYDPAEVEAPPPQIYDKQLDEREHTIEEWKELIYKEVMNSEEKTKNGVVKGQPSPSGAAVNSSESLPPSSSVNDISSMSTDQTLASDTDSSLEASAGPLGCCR
smiles,measurement,setting,value
O=C(Cn1cnc2ccccc2c1=O)Nc1ccc(-c2nnc3n2CCCCC3)cc1,IC50,[1],29.5 µM (not active)
CC(C)C1C(C#N)=C(N)Oc2[nH]nc(-c3ccc4ccccc4c3)c21 (stereo not given),IC50,[2],2.41 µM (active)
CCCCN(CC)CCCNC(=O)c1cc2c(=O)n(CC)c3ccccc3c2s1,EC50,[3],73.6 µM (active)
same,EC50,[4],13.6 µM (active)
same,EC50,H4,11.7 µM (active)
same,IC50,[5],> 20 µM (inactive)
same,IC50,Vero [6],22.7 µM (active)
same,CC50,Vero [7],24.3 µM (active)
same,AC50,[8],21.6 µM (active)
CC(=O)c1cccc(CN2CCN(C3CCCCC3)C(CCO)C2)c1 (stereo not given),IC50,[9],> 83.3 µM (inactive)
same,IC50,[10],> 109 µM (inactive)
Cc1occc1-c1nnc(SCC(=O)N2CCN(c3ccccc3)CC2)n1C,IC50,Protein Tat,> 100 µM (active)
Cc1ccc(C)c(N2CCN(C(=O)Cc3ccc(-n4c(=O)[nH]c5ccsc5c4=O)cc3)CC2)c1,IC50,[9],> 83.2 µM (inactive)
same,IC50,[10],> 109 µM (inactive)
O=C1NC(=O)N(c2ccccc2)C(=O)/C1=C\C=C\c1ccccc1,EC50,[11],15.1 µM (active)
same,EC50,[3],> 120 µM (not active)
same,EC50,BJ [12],> 150 µM (inconclusive)
same,EC50,BJ [13],4.12 µM (inconclusive)
same,EC50,[4],8.73 µM (active)
same,IC50,Large T antigen,95.6 µM (active)
same,EC50,H4,> 120 µM (not active)
same,CC50,[14],13 µM (active)
same,EC50,BJ [15],2.79 µM (inconclusive)
same,EC50,[16],4.66 µM (inconclusive)
O=C(Nc1ccc(CN2CCOCC2)cc1)c1ccc(Cl)cc1,EC50,[17],0.951 µM (active)
same,EC50,[3],< 0.1 µM (active)
same,EC50,[18],> 12 µM (not active)
same,EC50,[4],4.65 µM (active)
same,EC50,[19],0.685 µM (active)
same,EC50,H4,16.1 µM (active)
COc1cc(C(c2c(C(=O)O)[nH]c3ccccc23)c2c(C(=O)O)[nH]c3ccccc23)ccc1OCc1ccccc1,IC50,Genome polyprotein,16 µM (active)
same,EC50,[20],24.5 µM (active)
same,EC50,[21],47.7 µM (active)
same,AC50,cells,7.4 µM (active)
CCN1CCN(CCCNC(=O)C2CCCN(c3nc4c(C)cc(C)cc4s3)C2)CC1 (stereo not given),IC50,Vero [6],24.8 µM (active)

# — ChEMBL document CHEMBL1201862, “PubChem BioAssay data set” (2004)
